In one experiment the test system is T cell lineages. Briefly: NADPH and NADP+ pools across cell types (LC-MS). The experiment is classed as cell-based. The procedure: (§1) For suspension cells (including T cells and red blood cells), 2×10^6 cells were seeded in 1 mL of media in 12-well plates and incubated with appropriate media, which included isotope tracers and/or chemical inhibitors and/or cytokines, as described. For all experiments involving small molecule agents, DMSO concentrations were <0.2%. After 2 hours, cell suspensions were transferred to 1.5 mL tubes and pelleted (30 seconds, 6000 rpm, room temperature). Media was removed by aspiration and metabolome extraction was performed by the addition of 75 µL of ice cold solvent (40:40:20 ACN:MeOH:H2O + 0.5%FA). After a 5-minute incubation on ice, acid was neutralized by the addition of NH4HCO3. After centrifugation (15 minutes, 16000 rpm, 4° C.), the resulting supernatant was transferred to a clean tube, frozen on dry ice and kept at -80° C. until LC-MS analysis.
Metabolites were analyzed using a quadrupole-orbitrap mass spectrometer (Q Exactive Plus, Thermo Fisher Scientific, Waltham, MA), coupled to hydrophilic interaction chromatography (HILIC) with LC separation on a XBridge BEH Amide column (Waters), or a stand-alone orbitrap (Thermo-Fisher Exactive) coupled to reversed-phase ion-pairing chromatography with LC separation on a HSS-T3 column (Waters). […]

A further experiment concerns colony formation. Kind of experiment: Colony formation. It is filed as cell-based. The following applies: dose-response; rescued by exogenous antioxidants.
For experiment [1], the system named is CD4+ regulatory T cells (Treg). Briefly: Treg assays. The experiment is classed as cell-based. The following applies: CD3/CD28 in the presence of TGF-β. The procedure:
Spleen and peripheral lymph nodes were harvested and processed to single cell suspensions of lymphocytes. Red blood cells were removed with hypotonic lysis. We used magnetic beads (Miltenyi Biotec, San Diego, CA) for isolation of Tconv (CD4^+CD25^-), Treg (CD4^+CD25^+), and antigen presenting cells (CD90.2^-). For cell culture medium, we used RPMI 1640 medium supplemented with 10% fetal bovine serum (FBS), penicillin (100 U/mL), streptomycin (100 µg/mL), and 55 µM β-mercaptoethanol Treg suppression and iTreg polarization were conducted as previously reported. For Treg suppression assays, Tconv were purified and stimulated with irradiated antigen presenting cells plus CD3ε mAb (1 µg/mL, BD Pharmingen). To assess proliferation, Tconv cells were labeled with carboxyfluorescein succinimidyl ester (CFSE), and Treg cells with CellTrace Violet. After 72 h, proliferation of Tconv and Treg cells was determined by flow cytometric analysis of CFSE and CellTrace Violet dilution, respectively. For conversion to Foxp3^+ Tregs, Tconv cells were incubated for 3-5 days with CD3ε/CD28 mAb beads, plus TGF-β (3 ng/mL) and IL-2 (25 U/mL), and analyzed by flow cytometry for Foxp3+ iTreg. Flow cytometry data was captured using Cytoflex (Beckman Coulter, Brea, CA) and analyzed using the FlowJo 10.2 software.

Another experiment has as its system RBCs. Briefly: NADPH pools in red blood cells. The experiment is classed as cell-based, mouse. The procedure:
To isolate red blood cells, mice were euthanized by cervical dislocation followed by collection of approximately 200 µL whole blood via cardiac puncture into tubes containing 7.5 µL heparin (1000USP/mL, H3393, Sigma Aldrich). The cells were incubated on ice for approximately 5 minutes, then centrifuged (5 minutes, 500 rpm, 4° C.) followed by aspiration of the serum and buffy coat layer. Cells were gently resuspended in PBS and then pelleted (5 minutes, 500 rpm, 4° C.) three times. Cells were then resuspended in RPMI media and used immediately for experiments.
as §1, with “After centrifugation (15 minutes, 16000 rpm, 4° C.), the resulting supernatant was transferred to a clean tube, frozen on dry ice and kept at -80° C. until LC-MS analysis.” left out

In another experiment the test system is active CD8+ T cells. Kind of experiment: Absolute oxPPP flux by 14CO2 emission. The experiment is classed as cell-based, mouse. The following applies: 10 uM. The procedure:
Glucose oxidation flux through oxPPP was determined from difference in the rate of ^14CO2 released from [1-^14C]-glucose and [6-^14C]-glucose, as previously described with some modification. RPMI 1640 media without sodium bicarbonate was supplemented with 0.74 g/L of NaHCO3, 2.5 mM HEPES pH 7.4, 10% dFBS, and 1% of either 1-^14C-glucose or 6-^14C-glucose. Three million primary mouse naïve (rested in IL-7) or active CD8+ T cells (in the presence of IL2 and 0.1% DMSO or 10 uM G6PDi-1) were incubated for 4 hours in a sealed 12.5 cm^2 flask. To facilitate the collection of ^14CO2, 100 µL of a 10 M KOH solution was introduced into the sealed flask using a center well for incubation flask (8823200000, DWK Life Sciences). The assay was stopped by injection of 1 mL 1 M HCL, and the KOH solution then transferred to scintillation vials containing 10 mL scintillation solution for counting. The signal was corrected for the percentage of radioactive tracer in the medium. OxPPP flux is calculated as follows: […]

The structures appear in SMILES notation.

As to `N#Cc1cc(Nc2ncc3c(n2)CCCCC3=O)cs1` [Compound 2, 4-([5-oxo-6H,7H,8H,9H-cyclohepta[d]pyrimidin-2-yl]amino)thiophene-2-carbonitrile], in the experiment on T cell lineages, the “decrease in NADPH” value is reported as above 10 fold and the “increase in NADP+” value was 5-10 fold. Further, in the experiment on colony formation, the colony formation entry is “dose-dependent decrease”. The “formation and proliferation of Foxp3+ cells” value in experiment [1] is “unaffected”. Further, the “sensitivity of NADPH pools” value in the experiment with RBCs is “fairly sensitive”. The “absolute oxPPP flux” value in the experiment on active CD8+ T cells was “blocked”.

The values are drawn from patent publication US20230348401A1, “Inhibitors of Glucose-6-phosphate Dehydrogenase and Uses Thereof” (The Trustees of Princeton University, priority 2020, published 2023).
